Key:
[1] = molecular target: T1, Human plasma kallikrein (Homo sapiens, UniProt P03952); test: Plasma Kallikrein Assay; type: biochemical; conditions: purified Human plasma kallikrein 0.5 nM, substrate Acetyl-K-P-R-AFC, pH 7.4
T1 construct: yields a heavy chain (371 amino acids) and a light chain (248 amino acids); purchased Enzyme Research Laboratories

[2] = molecular target: human factor XIa (Homo sapiens, UniProt P03951); test: Factor XIa Assay; type: biochemical; conditions: human factor XIa 0.04 nM, substrate GPR-AFC, 30 min pre-incubation at 25° C., pH 7.4; read-out: FXIa IC50
human factor XIa, sequence (P03951 388-625 limits assumed): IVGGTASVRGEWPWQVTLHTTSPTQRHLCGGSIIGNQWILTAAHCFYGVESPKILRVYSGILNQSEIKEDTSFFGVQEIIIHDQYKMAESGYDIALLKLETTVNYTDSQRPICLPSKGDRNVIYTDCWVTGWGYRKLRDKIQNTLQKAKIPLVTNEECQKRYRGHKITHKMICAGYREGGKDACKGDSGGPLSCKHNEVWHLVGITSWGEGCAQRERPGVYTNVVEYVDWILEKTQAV
human factor XIa, sequence (P03951 19-387 partner limits assumed): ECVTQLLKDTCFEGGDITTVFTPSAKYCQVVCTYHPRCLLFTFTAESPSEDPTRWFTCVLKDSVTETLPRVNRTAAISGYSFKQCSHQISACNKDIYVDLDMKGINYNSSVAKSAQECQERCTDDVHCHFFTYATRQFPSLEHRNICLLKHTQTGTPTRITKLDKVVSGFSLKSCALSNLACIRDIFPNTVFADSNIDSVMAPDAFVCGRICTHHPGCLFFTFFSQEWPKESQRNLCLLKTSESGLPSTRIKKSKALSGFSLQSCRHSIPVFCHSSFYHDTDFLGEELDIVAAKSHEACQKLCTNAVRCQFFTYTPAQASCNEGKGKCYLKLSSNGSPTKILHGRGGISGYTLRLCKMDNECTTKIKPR

T1 sequence (P03952 391-638 limits assumed): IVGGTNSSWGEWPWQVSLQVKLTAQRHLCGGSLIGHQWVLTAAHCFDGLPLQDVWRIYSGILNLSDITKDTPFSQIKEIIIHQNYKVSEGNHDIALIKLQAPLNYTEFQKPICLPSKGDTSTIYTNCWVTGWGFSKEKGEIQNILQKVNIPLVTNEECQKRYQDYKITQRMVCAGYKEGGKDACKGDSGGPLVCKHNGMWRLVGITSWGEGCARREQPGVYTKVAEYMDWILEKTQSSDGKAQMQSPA
T1 sequence (P03952 20-390 partner limits assumed): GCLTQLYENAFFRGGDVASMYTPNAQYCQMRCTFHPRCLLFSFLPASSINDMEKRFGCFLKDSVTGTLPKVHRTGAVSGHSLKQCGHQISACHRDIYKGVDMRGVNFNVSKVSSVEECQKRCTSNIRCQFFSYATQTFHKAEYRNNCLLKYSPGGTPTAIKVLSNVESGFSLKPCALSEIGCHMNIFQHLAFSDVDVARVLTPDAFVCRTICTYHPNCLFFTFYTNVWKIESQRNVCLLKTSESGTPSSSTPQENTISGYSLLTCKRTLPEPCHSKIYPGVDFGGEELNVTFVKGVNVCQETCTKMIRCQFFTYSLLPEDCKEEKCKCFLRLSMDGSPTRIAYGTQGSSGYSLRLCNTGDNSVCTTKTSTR

| Structure (SMILES) | IC50 [1] | IC50 [2] |
| --- | --- | --- |
| [2H]C(C)(c1cnc(N2CCC2)nc1)n1cc(NC(=O)c2cncc(-c3c(C(F)F)ccc(Cl)c3F)n2)cn1 (single isomer, unassigned) [Example 42, (S or R)-N-(1-(1-(2-(azetidin-1-yl)pyrimidin-5-yl)ethyl-1-d)-1H-pyrazol-4-yl)-6-(3-chloro-6-(difluoromethyl)-2-fluorophenyl)pyrazine-2-carboxamide] | 4.7 nM | 1110 nM |
| NC(=O)c1ncc(-c2c(C(F)F)ccc(Cl)c2F)nc1C(=O)Nc1cnn(Cc2cnc(N3CCC3)nc2)c1 [Example 138, N^2-(1-((2-(Azetidin-1-yl)pyrimidin-5-yl)methyl)-1H-pyrazol-4-yl)-6-(3-chloro-6-(difluoromethyl)-2-fluorophenyl)pyrazine-2,3-dicarboxamide] | 14.6 nM | 2320 nM |
| COc1ccc(-n2cnnn2)c(-c2cncc(C(=O)Nc3cnn(C(C)c4cnc(N5CCC5)nc4)c3)n2)c1 (single isomer, unassigned) [Example 61, (R or S)-N-(1-(1-(2-(Azetidin-1-yl)pyrimidin-5-yl)ethyl)-1H-pyrazol-4-yl)-6-(5-methoxy-2-(1H-tetrazol-1-yl)phenyl)pyrazine-2-carboxamide] | 14 nM | 662 nM |
| C[C@H](O)c1ncc(-c2c(C(F)F)ccc(Cl)c2F)nc1C(=O)Nc1cnn(Cc2cnc(N3CCC3)nc2)c1 (single isomer, unassigned) [Example 134] | 9.4 nM | 852 nM |
| CC(c1cnc(N2CCC2)nc1)n1cc(NC(=O)c2cncc(-c3c(OC(F)F)ccc(Cl)c3F)n2)cn1 (single isomer, unassigned) [Example 57, (S or R)-N-(1-(1-(2-(Azetidin-1-yl)pyrimidin-5-yl)ethyl)-1H-pyrazol-4-yl)-6-(3-chloro-6-(difluoromethoxy)-2-fluorophenyl)pyrazine-2-carboxamide] | 6.8 nM | 1170 nM |
| CS(=O)(=O)c1ccc(Cl)c(F)c1-c1cncc(C(=O)Nc2cnn(Cc3cnc(N4CCC4)nc3)c2)n1 [Example 207, N-(1-((2-(Azetidin-1-yl)pyrimidin-5-yl)methyl)-1H-pyrazol-4-yl)-6-(3-chloro-2-fluoro-6-(methylsulfonyl)phenyl)pyrazine-2-carboxamide] | 17.2 nM | 675 nM |
| Cc1nc(N2CCC2)ncc1[C@@H](C)n1cc(NC(=O)c2cncc(-c3c(C(F)F)ccc(Cl)c3F)n2)cn1 (single isomer, unassigned) [Example 70] | 1.4 nM | 485 nM |
| C[C@@H](c1cnc(N2C[C@@H]3C[C@@H]3[C@@H]2CO)nc1)n1cc(NC(=O)c2cncc(-c3c(C(F)F)ccc(Cl)c3F)n2)cn1 (single isomer, unassigned) [Example 76, 6-(3-Chloro-6-(difluoromethyl)-2-fluorophenyl)-N-(1-((S or R)-1-(2-((1S,2R,5R or 1R,2S,5S)-2-(hydroxymethyl)-3-azabicyclo[3.1.0]hexan-3-yl)pyrimidin-5-yl)ethyl)-1H-pyrazol-4-yl)pyrazine-2-carboxamide] | 5.4 nM | 4640 nM |
| Cc1nc(Cn2cc(NC(=O)c3cncc(-c4c(C(F)F)ccc(Cl)c4F)n3)cn2)cnc1N1CC(F)(F)C1 [Example 15, 6-(3-Chloro-6-(difluoromethyl)-2-fluorophenyl)-N-(1-((5-(3,3-difluoroazetidin-1-yl)-6-methylpyrazin-2-yl)methyl)-1H-pyrazol-4-yl)pyrazine-2-carboxamide] | 8.1 nM | 3690 nM |
| Cc1ncc(-c2c(C(F)F)ccc(Cl)c2F)nc1C(=O)Nc1cnn(Cc2cnc(N3CC(F)(F)C3)c(C)n2)c1 [Example 11, 6-(3-Chloro-6-(difluoromethyl)-2-fluorophenyl)-N-(1-((5-(3,3-difluoroazetidin-1-yl)-6-methylpyrazin-2-yl)methyl)-1H-pyrazol-4-yl)-3-methylpyrazine-2-carboxamide] | 6.2 nM | 1710 nM |
| O=C(Nc1cnn(Cc2cnc(N3CCCC3CN3CC[C@H](F)C3)nc2)c1)c1cncc(-c2c(C(F)F)ccc(Cl)c2F)n1 (stereo partly drawn) [Example 148, 6-(3-Chloro-6-(difluoromethyl)-2-fluorophenyl)-N-(1-((2-(2-(((S)-3-fluoropyrrolidin-1-yl)methyl)pyrrolidin-1-yl)pyrimidin-5-yl)methyl)-1H-pyrazol-4-yl)pyrazine-2-carboxamide] | 0.6 nM | 2930 nM |
| C[C@@H](F)CN(C)CC1CCCN1c1ncc(Cn2cc(NC(=O)c3cncc(-c4c(C(F)F)ccc(Cl)c4F)n3)cn2)cn1 (stereo partly drawn) [Example 151, 6-(3-Chloro-6-(difluoromethyl)-2-fluorophenyl)-N-(1-((2-(2-((((R)-2-fluoropropyl)(methyl)amino)methyl)pyrrolidin-1-yl)pyrimidin-5-yl)methyl)-1H-pyrazol-4-yl)pyrazine-2-carboxamide] | 1 nM | 7720 nM |
| COc1ccc(C(F)F)c(-c2cncc(C(=O)Nc3cnn(Cc4cnc(N5CCC5)nc4)c3)n2)c1F [Example 208, N-(1-((2-(Azetidin-1-yl)pyrimidin-5-yl)methyl)-1H-pyrazol-4-yl)-6-(6-(difluoromethyl)-2-fluoro-3-methoxyphenyl)pyrazine-2-carboxamide] | 33.9 nM | 827 nM |
| CC(c1cnc(N2C[C@H]3C[C@H]3C2C(=O)N(C)C)nc1)n1cc(NC(=O)c2cncc(-c3c(C(F)F)ccc(Cl)c3F)n2)cn1 (single isomer, unassigned) [Example 202, (1R,2S,5S or 1S,2R,5R)-3-(5-((R or S)-1-(4-(6-(3-Chloro-6-(difluoromethyl)-2-fluorophenyl)pyrazine-2-carboxamido)-1H-pyrazol-1-yl)ethyl)pyrimidin-2-yl)-N,N-dimethyl-3-azabicyclo[3.1.0]hexane-2-carboxamide] | 1 nM | 2260 nM |
| CC(c1cnc(N2CC3(CC3)C2)nc1)n1cc(NC(=O)c2cncc(-c3c(C(F)F)ccc(Cl)c3F)n2)cn1 (stereo not drawn) [Example 99, N-(1-(1-(2-(5-Azaspiro[2.3]hexan-5-yl)pyrimidin-5-yl)ethyl)-1H-pyrazol-4-yl)-6-(3-chloro-6-(difluoromethyl)-2-fluorophenyl)pyrazine-2-carboxamide] | 29.8 nM | 3660 nM |

Reference: patent publication US20230416227A1, “PLASMA KALLIKREIN INHIBITORS” (Merck Sharp & Dohme LLC, priority 2020, published 2023)
